Data taken from paper PMC7218127, “Cytotoxic and Optically Active Pyrisulfoxins From the Endophytic Streptomyces albolongus EA12432” (Frontiers in Chemistry, 2020).

Legend:
[1] = tested on: A431 epidermoid carcinoma cell line; test: CellTiter-Glo (CTG) cytotoxic assay; conditions: Homo sapiens, A-431, 72 h, read-out: Cytotoxicity IC50, A431
[2] = tested on: BT474 breast cancer cell line; test: CellTiter-Glo (CTG) cytotoxic assay; conditions: Homo sapiens, BT-474, 72 h, read-out: Cytotoxicity IC50, BT474
[3] = tested on: MDA-MB-468 breast cancer cell line; test: CellTiter-Glo (CTG) cytotoxic assay; conditions: Homo sapiens, MDA-MB-468, 72 h, read-out: Cytotoxicity IC50, MDA-MB-468
[4] = tested on: U251 glioblastoma cell line; test: CellTiter-Glo (CTG) cytotoxic assay; conditions: Homo sapiens, U-251, 72 h, read-out: Cytotoxicity IC50, U251
[5] = tested on: HCC1954 ductal carcinoma cell line; test: CellTiter-Glo (CTG) cytotoxic assay; conditions: Homo sapiens, HCC1954, 72 h, read-out: Cytotoxicity IC50, HCC1954
[6] = tested on: MCF-7 breast cancer cell line; test: CellTiter-Glo (CTG) cytotoxic assay; conditions: Homo sapiens, MCF7, 72 h, read-out: Cytotoxicity IC50, MCF-7
[7] = tested on: MKN-45 gastric cancer cell line; test: CellTiter-Glo (CTG) cytotoxic assay; conditions: Homo sapiens, MKN-45, 72 h, read-out: Cytotoxicity IC50, MKN-45
[8] = tested on: Hep3B liver cancer cell line; test: CellTiter-Glo (CTG) cytotoxic assay; conditions: Homo sapiens, 72 h, read-out: Cytotoxicity IC50, Hep3B
[9] = tested on: H1975 lung cancer cell line; test: CellTiter-Glo (CTG) cytotoxic assay; conditions: Homo sapiens, NCI-H1975, 72 h, read-out: Cytotoxicity IC50, H1975
[10] = tested on: A673 rhabdomyoma cell line; test: CellTiter-Glo (CTG) cytotoxic assay; conditions: Homo sapiens, A673, 72 h, read-out: Cytotoxicity IC50, A673
[11] = tested on: H2228 lung cancer cell line; test: CellTiter-Glo (CTG) cytotoxic assay; conditions: Homo sapiens, NCI-H2228, 72 h, read-out: Cytotoxicity IC50, H2228
[12] = tested on: MDA-MB-231 breast cancer cell line; test: CellTiter-Glo (CTG) cytotoxic assay; conditions: Homo sapiens, MDA-MB-231, 72 h, read-out: Cytotoxicity IC50, MDA-MB-231
[13] = tested on: U87 glioblastoma cell line; test: CellTiter-Glo (CTG) cytotoxic assay; conditions: Homo sapiens, 72 h, read-out: Cytotoxicity IC50, U87
[14] = tested on: Karpass299 T cell lymphoma cell line; test: CellTiter-Glo (CTG) cytotoxic assay; conditions: Homo sapiens, 72 h, read-out: Cytotoxicity IC50, Karpass299
[15] = tested on: HL-60 leukemia cell line; test: CellTiter-Glo (CTG) cytotoxic assay; conditions: Homo sapiens, HL-60, 72 h, read-out: Cytotoxicity IC50, HL60
[16] = tested on: MV-4-11 leukemia cell line; test: CellTiter-Glo (CTG) cytotoxic assay; conditions: Homo sapiens, MV4-11, 72 h, read-out: Cytotoxicity IC50, MV-4-11
[17] = tested on: N87 gastric carcinoma cell line; test: CellTiter-Glo (CTG) cytotoxic assay; conditions: Homo sapiens, 72 h, read-out: Cytotoxicity IC50, N87
[18] = tested on: H1299 lung cancer cell line; test: CellTiter-Glo (CTG) cytotoxic assay; conditions: Homo sapiens, NCI-H1299, 72 h, read-out: Cytotoxicity IC50, H1299
[19] = tested on: A549 lung cancer cell line; test: CellTiter-Glo (CTG) cytotoxic assay; conditions: Homo sapiens, A549, 72 h, read-out: Cytotoxicity IC50, A549
[20] = tested on: K562 leukemia cell line; test: CellTiter-Glo (CTG) cytotoxic assay; conditions: Homo sapiens, K562, 72 h, read-out: Cytotoxicity IC50, K562
[21] = tested on: HCT-116 human colon carcinoma cell line; test: CellTiter-Glo (CTG) cytotoxic assay; conditions: HCT-116, 72 h, read-out: Cytotoxicity IC50, HCT-116
[22] = tested on: 143B bone osteosarcoma cell line; test: CellTiter-Glo (CTG) cytotoxic assay; conditions: Homo sapiens, 72 h, read-out: Cytotoxicity IC50, 143B
[23] = tested on: B16F10 highly metastatic mouse melanoma cell line; test: CellTiter-Glo (CTG) cytotoxic assay; conditions: B16-F10, 72 h, read-out: Cytotoxicity IC50, B16F10
[24] = tested on: SPC-A1 lung cancer cell line; test: CellTiter-Glo (CTG) cytotoxic assay; conditions: Homo sapiens, SPCA1, 72 h, read-out: Cytotoxicity IC50, SPC-A1
[25] = tested on: HUCCT1 ductal carcinoma cell line; test: CellTiter-Glo (CTG) cytotoxic assay; conditions: Homo sapiens, HuCCT-1, 72 h, read-out: Cytotoxicity IC50, HUCCT1
[26] = tested on: DU145 prostate cancer cell line; test: CellTiter-Glo (CTG) cytotoxic assay; conditions: Homo sapiens, DU-145, 72 h, read-out: Cytotoxicity IC50, DU145
[27] = tested on: 26 cancer cell lines; test: CTG cytotoxic assay, summary over the panel; conditions: read-out: IC50 values against 26 cancer cell lines, range
[28] = CellTiter-Glo (CTG) cytotoxic assay, normal cells; conditions: human, L02 normal liver cells
[29] = CellTiter-Glo (CTG) cytotoxic assay, normal cells; conditions: human, HEK-293F cells
[30] = tested on: cancer cells; test: Cytotoxicity (MTT, SRB, CTG), summary over all cancer cells; conditions: read-out: IC50 values against cancer cells, range
[31] = tested on: HCT-116 human colorectal cancer cell line; test: SRB cytotoxicity assay; conditions: read-out: Cytotoxicity IC50, HCT-116; SRB method, 72 h (Table 5); NA = no activity
[32] = tested on: HT-29 human colorectal cancer cell line; test: SRB cytotoxicity assay; conditions: read-out: Cytotoxicity IC50, HT-29; SRB method, 72 h (Table 5)
[33] = tested on: P6C human colorectal cancer cell line; test: MTT cytotoxicity assay; conditions: read-out: Cytotoxicity IC50, P6C; MTT method, 72 h (Table 5)
[34] = tested on: BXPC-3 human pancreatic cancer cell line; test: SRB cytotoxicity assay; conditions: read-out: Cytotoxicity IC50, BXPC-3; SRB method, 72 h (Table 5)
[35] = tested on: K562 cell line; test: MTT cytotoxicity assay; conditions: read-out: Cytotoxicity IC50, K562; MTT method, 72 h (Table 5); NA = no activity
[36] = tested on: HCT-116, HT-29, P6C and BXPC-3 cell lines; test: SRB/MTT cytotoxicity assays, summary over CRC and pancreatic lines; conditions: Homo sapiens, read-out: IC50 values against HCT-116, HT-29, P6C and BXPC-3, range
[37] = tested on: Jurkat cell line; test: MTT cytotoxicity assay; conditions: read-out: Cytotoxicity IC50, Jurkat; MTT method, 72 h (Table 5)
[38] = tested on: MCF-7 human breast cancer cell line; test: MTT cytotoxicity assay; conditions: read-out: Cytotoxicity IC50, MCF-7; MTT method, 72 h (Table 5); NA = no activity
[39] = tested on: other 26 cell lines (Table 4 without N87); test: CTG cytotoxic assay, summary over the other cell lines of Table 4; conditions: read-out: IC50 against other 26 cell lines

Structure (SMILES): CC(=O)NCc1nc(-c2ccccn2)cc(O)c1[S+](C)[O-] (racemic) [(±)-2, N-[(4-hydroxy-5-methylsulfinyl-2,2′-bipyridin-6-yl)methyl] acetamide]
- IC50 [1]: 4630 nM
- IC50 [2]: 8240 nM
- IC50 [3]: 1310 nM
- IC50 [4]: 4790 nM
- IC50 [5]: 2140 nM
- IC50 [6]: 5780 nM
- IC50 [7]: 4880 nM
- IC50 [8]: 4420 nM
- IC50 [9]: 2550 nM
- IC50 [10]: 6900 nM
- IC50 [11]: 8050 nM
- IC50 [12]: 920 nM
- IC50 [13]: 3670 nM
- IC50 [14]: 3130 nM
- IC50 [15]: 3180 nM
- IC50 [16]: 9710 nM
- IC50 [17]: 7460 nM
- IC50 [18]: 7380 nM
- IC50 [19]: 4180 nM
- IC50 [20]: 5920 nM
- IC50 [21]: 2450 nM
- IC50 [22]: 8390 nM
- IC50 [23]: 7740 nM
- IC50 [24]: 7830 nM
- IC50 [25]: 7910 nM
- IC50 [26]: 4510 nM
- IC50 [27]: 920 to 9710 nM
- IC50 at 72 h [28]: > 100000 nM
- IC50 at 72 h [29]: > 100000 nM
- IC50 [30]: 48 to 9710 nM

Structure (SMILES): COc1cc(-c2ccccn2)nc(/C=N/O)c1[S+](C)[O-] (racemic) [(±)-3, pyrisulfoxin A]
- IC50 [31]: 730 nM
- IC50 [32]: 830 nM
- IC50 [33]: 3200 nM
- IC50 [34]: 1600 nM
- IC50 [35]: 13000 nM
- IC50 [30]: 48 to 9710 nM
- IC50 [36]: 48 to 3200 nM

Structure (SMILES): COc1cccc2c1C(=O)c1c(O)c3c(c(O)c1C2=O)C[C@@](O)(C(=O)CO)C[C@@H]3O[C@H]1C[C@H](N)[C@H](O)[C@H](C)O1 [Adriamycin, reference compound]
- IC50 [31]: 210 nM
- IC50 [32]: 160 nM
- IC50 [33]: 650 nM
- IC50 [34]: 32 nM
- IC50 [35]: 250 nM
- IC50 [37]: 440 nM
- IC50 [38]: 860 nM
- IC50 [1]: 170 nM
- IC50 [2]: 1940 nM
- IC50 [3]: > 100000 nM
- IC50 [4]: 190 nM
- IC50 [5]: 48 nM
- IC50 [6]: 100 nM
- IC50 [7]: 190 nM
- IC50 [8]: 17600 nM
- IC50 [9]: 91 nM
- IC50 [10]: 130 nM
- IC50 [11]: 97 nM
- IC50 [12]: 180 nM
- IC50 [13]: 120 nM
- IC50 [14]: 390 nM
- IC50 [15]: 210 nM
- IC50 [16]: 160 nM
- IC50 [17]: 120 nM
- IC50 [18]: 490 nM
- IC50 [19]: 99 nM
- IC50 [20]: 18 nM
- IC50 [21]: 100 nM
- IC50 [22]: 95 nM
- IC50 [23]: 15 nM
- IC50 [24]: 190 nM
- IC50 [25]: 51 nM
- IC50 [26]: 48 nM
- IC50 at 72 h [28]: 96 nM
- IC50 at 72 h [29]: 50 nM

Structure (SMILES): COc1cc(-c2ccccn2)nc([C@H]2NC(=O)c3ccccc3N2)c1SC [R(–)-14, R-Pyrisulfoxin F]
- IC50 [31]: 14700 nM

Structure (SMILES): COc1cc(-c2ccccn2)nc([C@@H]2NC(=O)c3ccccc3N2)c1SC [S(+)-14, S-Pyrisulfoxin F]
- IC50 [38]: 10400 nM

Structure (SMILES): COc1cc(-c2ccccn2)nc(CO)c1[S+](C)[O-] (stereo not shown) [compound 1, 4-methoxy-5-methylsulfinyl-2,2′-bipyridine-6-methanol]
- IC50 [17]: 8090 nM
- IC50 at 72 h [28]: > 100000 nM
- IC50 at 72 h [29]: > 100000 nM
- IC50 [30]: 48 to 9710 nM
- IC50 [39]: > 100000 nM
